Results published in ChEMBL document CHEMBL5252599, “Euphohelides A-C, ent-Abietane-Type Norditerpene Lactones from Euphorbia helioscopia and Their Anti-Inflammatory Activities” (J Nat Prod, 2023).
The source made the active and inactive calls. The calls are words filed in the database; no cut-off is given here.

Key:
[1] = system: RAW264.7; assay: Cytotoxicity against mouse RAW264.7 cells assessed as reduction in cell viability at 100 uM measured after 24 hrs by CCK8 assay; type: toxicity, cell-based; settings: raw264.7, 24 h
[2] = system: RAW264.7; assay: Antiinflammatory activity in mouse RAW264.7 cells assessed as reduction in LPS-induced NO production pre-incubated for 2 hrs followed by LPS stimulation measured after 24 hrs by Griess method; type: functional, cell-based
[3] = system: RAW264.7; assay: Antiinflammatory activity in mouse RAW264.7 cells assessed as reduction in LPS-induced IL-6 production pre-incubated for 2 hrs followed by LPS stimulation measured after 24 hrs by Griess method; type: functional, cell-based; settings: dose 5-40 µM, time 26.0 hrs
[4] = system: RAW264.7; assay: Antiinflammatory activity in mouse RAW264.7 cells assessed as reduction in LPS-induced TNF-alpha production pre-incubated for 2 hrs followed by LPS stimulation measured after 24 hrs by Griess method; type: functional, cell-based; settings: dose 5-40 µM, time 26.0 hrs
[5] = system: RAW264.7; assay: Antiinflammatory activity against mouse RAW264.7 cells assessed as inhibition of LPS-induced NF-kappaB/p65 expression at 10 to 40 uM pre-incubated for 2 hrs followed by LPS stimulation measured after 24 hrs by western blot analysis; type: functional, cell-based; settings: dose 10-40 µM, time 26.0 hrs
[6] = system: RAW264.7; assay: Antiinflammatory activity against mouse RAW264.7 cells assessed as inhibition of LPS-induced iNOS expression at 10 uM pre-incubated for 2 hrs followed by LPS stimulation measured after 24 hrs by western blot analysis; type: functional, cell-based; settings: time 26.0 hrs

| Compound | Activity [1] | also measured |
| --- | --- | --- |
| CC1=C2C=C3CC[C@@H]4C(C)(C)OC(=O)[C@@]4(C)[C@@H]3C[C@H]2OC1=O | Non-Toxic |  |
| CC1=C2C=C3CC[C@@H]4C(C)(C)[C@H](O)[C@H](O)C[C@@]4(C)[C@@H]3C[C@H]2OC1=O | Non-Toxic |  |
| CC1=C2C=C3CC[C@@H]4C(C)(C)C(=O)C(O)=C[C@@]4(C)[C@@H]3C[C@H]2OC1=O | Non-Toxic |  |
| CC1=C2C=C3CC[C@@H]4C(C)(C)[C@H](O)C(=O)C[C@@]4(C)[C@@H]3C[C@H]2OC1=O | Non-Toxic | IC50 [2]: 33.8 µM |
| CC1=C2C=C3CC[C@@H]4C(C)(C)OC(=O)C[C@@]4(C)[C@@H]3C[C@H]2OC1=O | Non-Toxic |  |
| CC1=C2C=C3CC[C@@H]4C(C)(C)C(=O)CC[C@@]4(C)[C@]3(O)C[C@H]2OC1=O | Non-Toxic |  |
| CC1=C2C=C3CC[C@@H]4C(C)(C)C(=O)[C@H](O)[C@@]4(C)[C@@H]3C[C@H]2OC1=O | Non-Toxic | Activity [3]: Dose-Dependent Effect; Activity [4]: Dose-Dependent Effect; IC50 [2]: 33 µM; Activity [5]: Active; Activity [6]: Active |
| CC1=C2C=C3CC[C@@H]4C(C)(C)[C@H](O)CC[C@@]4(C)[C@@H]3C[C@H]2OC1=O [HELIOSCOPINOLIDE A] | Non-Toxic |  |
| CC1=C2C=C3CC[C@@H]4C(C)(C)[C@@H](O)CC[C@@]4(C)[C@@H]3C[C@H]2OC1=O [HELIOSCOPINOLIDE B] | Non-Toxic |  |
| CC1=C2C=C3CC[C@@H]4C(C)(C)[C@@H](O)CC[C@@]4(C)[C@]3(O)C[C@H]2OC1=O | Non-Toxic |  |
| CC1=C2C(=O)C3=C(C[C@H]2OC1=O)[C@]1(C)CC[C@@H](O)C(C)(CO)[C@H]1CC3 (some centres not stated) | Non-Toxic |  |
